Patent US20230107642A1 (Erasca, Inc., priority 2020, published 2023)

molecular target: T1, Cys12 of the KRAS 4B G12C protein (Homo sapiens, UniProt P01116, G12C); experiment: In vitro covalent adduct formation (CAF) assay, LC-MS intact mass; format: binding; conditions: 10 uM compound, 60 min
T1 construct: This protein contained 188 amino acids in total, including an N-terminal 6-Histidine tag; made in house; host or cells: E. coli BL21
Procedure, shortened: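 Percent covalent modification from intact-mass LC-MS, by relative free versus adducted protein (adducts within 1 Da of expected mass). Reaction: 10 μM compound with 5 μM E. coli-expressed, GDP-exchanged KRAS 4B G12C in TBS pH 7.4, 4% DMSO, 1 h at 22° C.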

SMILES	% CAF 10 uM @ 60 min
[2H]C([2H])([2H])OC[C@H]1CSc2c(-c3ccc(F)cc3)c(C(F)(F)F)cc3c(N4C[C@@H](C)N(C(=O)C=C)[C@@H](C)C4)nc(=O)n1c23 [Example 1413, (S)-7-((3S,5R)-4-acryloyl-3,5-dimethylpiperazin-1-yl)-10-(4-fluorophenyl)-3-((methoxy-d3)methyl)-9-(trifluoromethyl)-2,3-dihydro-5H-[1,4]thiazino[2,3,4-ij]quinazolin-5-one]	95.1%
C=CC(=O)N1[C@H](C)CN(c2nc(=O)n3c4c(c(-c5ccc(F)cc5F)c(C(F)(F)F)cc24)SC[C@@H]3COCC)C[C@@H]1C [Example 1414, (3S)-7-((3S,5R)-4-acryloyl-3,5-dimethylpiperazin-1-yl)-10-(2,4-difluorophenyl)-3-(ethoxymethyl)-9-(trifluoromethyl)-2,3-dihydro-5H-[1,4]thiazino[2,3,4-ij]quinazolin-5-one]	91.8%
C=CC(=O)N1[C@H](C)CN(c2nc(=O)n3c4c(c(-c5ccc(F)cc5)c(C(F)(F)F)cc24)SC[C@@H]3COCC)C[C@@H]1C [Example 1415, (S)-7-((3S,5R)-4-acryloyl-3,5-dimethylpiperazin-1-yl)-3-(ethoxymethyl)-10-(4-fluorophenyl)-9-(trifluoromethyl)-2,3-dihydro-5H-[1,4]thiazino[2,3,4-ij]quinazolin-5-one]	90.1%
[2H]C([2H])([2H])OC[C@H]1CSc2c(-c3cc(Cl)c(F)cc3F)c(C(F)(F)F)cc3c(N4C[C@@H](C)N(C(=O)C=C)[C@@H](C)C4)nc(=O)n1c23 [Example 1417, (3S)-7-((3S,5R)-4-acryloyl-3,5-dimethylpiperazin-1-yl)-10-(5-chloro-2,4-difluorophenyl)-3-((methoxy-d3)methyl)-9-(trifluoromethyl)-2,3-dihydro-5H-[1,4]thiazino[2,3,4-ij]quinazolin-5-one]	92.5%
[2H]C([2H])([2H])OC[C@H]1CSc2c(-c3ccc(F)cc3F)c(C(F)(F)F)cc3c(N4C[C@@H](C)N(C(=O)C=C)[C@@H](C)C4)nc(=O)n1c23 [Example 1418, (3S)-7-((3S,5R)-4-acryloyl-3,5-dimethylpiperazin-1-yl)-10-(2,4-difluorophenyl)-3-((methoxy-d3)methyl)-9-(trifluoromethyl)-2,3-dihydro-5H-[1,4]thiazino[2,3,4-ij]quinazolin-5-one]	95.4%
C=CC(=O)N1[C@H](C)CN(c2nc(=O)n3c4c(c(-c5ccc(F)cc5)c(C(F)(F)F)cc24)SC[C@@H]3C)C[C@@H]1C [Example 1419, (S)-7-((3S,5R)-4-acryloyl-3,5-dimethylpiperazin-1-yl)-10-(4-fluorophenyl)-3-methyl-9-(trifluoromethyl)-2H-[1,4]thiazino[2,3,4-ij]quinazolin-5(3H)-one]	95.7%
C=CC(=O)N1[C@H](C)CN(c2nc(=O)n3c4c(c(-c5cc(Cl)c(F)cc5F)c(C(F)(F)F)cc24)SC[C@@H](N2CCCC2)C3)C[C@@H]1C [Example 1422, (3S)-8-((3S,5R)-4-acryloyl-3,5-dimethylpiperazin-1-yl)-11-(5-chloro-2,4-difluorophenyl)-3-(pyrrolidin-1-yl)-10-(trifluoromethyl)-3,4-dihydro-2H,6H-[1,4]thiazepino[2,3,4-ij]quinazolin-6-one]	94.1%
C=CC(=O)N1C[C@H](C)N(c2nc(=O)n3c4c(c(-c5cc(C=O)c(F)cc5F)c(C(F)(F)F)cc24)SCC2(COC2)C3)C[C@H]1C [Example 1425, 5-(8′-((2S,5R)-4-acryloyl-2,5-dimethylpiperazin-1-yl)-6′-oxo-10′-(trifluoromethyl)-2′H,4′H,6′H-spiro[oxetane-3,3′-[1,4]thiazepino[2,3,4-ij]quinazolin]-11′-yl)-2,4-difluorobenzaldehyde]	69.2%
C=CC(=O)N1C[C@H](C)N(c2nc(=O)n3c4c(c(-c5cc(C(OC)OC)c(F)cc5F)c(C(F)(F)F)cc24)SCC2(COC2)C3)C[C@H]1C [Example 1426, 8′-((2S,5R)-4-acryloyl-2,5-dimethylpiperazin-1-yl)-11′-(5-(dimethoxymethyl)-2,4-difluorophenyl)-10′-(trifluoromethyl)-2′H,4′H,6′H-spiro[oxetane-3,3′-[1,4]thiazepino[2,3,4-ij]quinazolin]-6′-one]	76%
C=CC(=O)N1[C@H](C)CN(c2nc(=O)n3c4c(c(-c5ccc(F)cc5F)c(C(F)(F)F)cc24)SC[C@@H]3C)C[C@@H]1C [Example 1427, (3S)-7-((3S,5R)-4-acryloyl-3,5-dimethylpiperazin-1-yl)-10-(2,4-difluorophenyl)-3-methyl-9-(trifluoromethyl)-2,3-dihydro-5H-[1,4]thiazino[2,3,4-ij]quinazolin-5-one]	95%
C=CC(=O)N1[C@H](C)CN(c2nc(=O)n3c4c(c(-c5ccc(F)cc5)c(C(F)(F)F)cc24)SCC(CO)(CO)C3)C[C@@H]1C [Example 1430, 8-((3S,5R)-4-acryloyl-3,5-dimethylpiperazin-1-yl)-11-(4-fluorophenyl)-3,3-bis(hydroxymethyl)-10-(trifluoromethyl)-3,4-dihydro-2H,6H-[1,4]thiazepino[2,3,4-ij]quinazolin-6-one]	93%
C=CC(=O)N1C[C@H](C)N(c2nc(=O)n3c4c(c(-c5cc(Cl)c(F)cc5F)c(C(F)(F)F)cc24)SCC2(CCOCC2)C3)C[C@H]1C [Example 1435, 8′-((2S,5R)-4-acryloyl-2,5-dimethylpiperazin-1-yl)-11′-(5-chloro-2,4-difluorophenyl)-10′-(trifluoromethyl)-2,3,5,6-tetrahydro-2′H,4′H,6′H-spiro[pyran-4,3′-[1,4]thiazepino[2,3,4-ij]quinazolin]-6′-one]	84%
C=CC(=O)N1C[C@H](C)N(c2nc(=O)n3c4c(c(-c5cc(Br)c(F)cc5F)c(C(F)(F)F)cc24)SCC2(COC2)C3)C[C@H]1C [Example 1436, 8′-((2S,5R)-4-acryloyl-2,5-dimethylpiperazin-1-yl)-11′-(5-bromo-2,4-difluorophenyl)-10′-(trifluoromethyl)-2′H,4′H,6′H-spiro[oxetane-3,3′-[1,4]thiazepino[2,3,4-ij]quinazolin]-6′-one]	81%
C=CC(=O)N1[C@H](C)CN(c2nc(=O)n3c4c(c(-c5cc(Cl)c(F)cc5F)c(C(F)(F)F)cc24)SCC(CO)(CO)C3)C[C@@H]1C [Example 1437, 8-((3S,5R)-4-acryloyl-3,5-dimethylpiperazin-1-yl)-11-(5-chloro-2,4-difluorophenyl)-3,3-bis(hydroxymethyl)-10-(trifluoromethyl)-3,4-dihydro-2H,6H-[1,4]thiazepino[2,3,4-ij]quinazolin-6-one]	87%
C=CC(=O)N1[C@H](C)CN(c2nc(=O)n3c4c(c(-c5ccc(F)cc5F)c(C(F)(F)F)cc24)SCC(CO)(CO)C3)C[C@@H]1C [Example 1442, 8-((3S,5R)-4-acryloyl-3,5-dimethylpiperazin-1-yl)-11-(2,4-difluorophenyl)-3,3-bis(hydroxymethyl)-10-(trifluoromethyl)-3,4-dihydro-2H,6H-[1,4]thiazepino[2,3,4-ij]quinazolin-6-one]	93%
C=CC(=O)N1[C@H](C)CN(c2nc(=O)n3c4c(c(-c5cc(Br)c(F)cc5F)c(C(F)(F)F)cc24)SC[C@@H]3COC)C[C@@H]1C [Example 1443, (3S)-7-((3S,5R)-4-acryloyl-3,5-dimethylpiperazin-1-yl)-10-(5-bromo-2,4-difluorophenyl)-3-(methoxymethyl)-9-(trifluoromethyl)-2,3-dihydro-5H-[1,4]thiazino[2,3,4-ij]quinazolin-5-one]	85%
C=CC(=O)N1[C@H](C)CN(c2nc(=O)n3c4c(c(-c5cc(O)c(F)cc5F)c(C(F)(F)F)cc24)SC[C@@H]3COC)C[C@@H]1C [Example 1444, (3S)-7-((3S,5R)-4-acryloyl-3,5-dimethylpiperazin-1-yl)-10-(2,4-difluoro-5-hydroxyphenyl)-3-(methoxymethyl)-9-(trifluoromethyl)-2,3-dihydro-5H-[1,4]thiazino[2,3,4-ij]quinazolin-5-one]	90%
C=CC(=O)N1[C@H](C)CN(c2nc(=O)n3c4c(c(-c5nc(N)ccc5I)c(C(F)(F)F)cc24)SC[C@@H]3COC)C[C@@H]1C [Example 1449, (3S)-7-((3S,5R)-4-acryloyl-3,5-dimethylpiperazin-1-yl)-10-(6-amino-3-iodopyridin-2-yl)-3-(methoxymethyl)-9-(trifluoromethyl)-2,3-dihydro-5H-[1,4]thiazino[2,3,4-ij]quinazolin-5-one]	94%
C=CC(=O)N1[C@H](C)CN(c2nc(=O)n3c4c(c(-c5ccc(F)cc5)c(C(F)(F)F)cc24)SC[C@@H](N2CCCC2=O)C3)C[C@@H]1C [Example 1450, (S)-8-((3S,5R)-4-acryloyl-3,5-dimethylpiperazin-1-yl)-11-(4-fluorophenyl)-3-(2-oxopyrrolidin-1-yl)-10-(trifluoromethyl)-3,4-dihydro-2H,6H-[1,4]thiazepino[2,3,4-ij]quinazolin-6-one]	96%
C=CC(=O)N1[C@H](C)CN(c2nc(=O)n3c4c(c(-c5ccc(F)cc5F)c(C(F)(F)F)cc24)SC[C@@H]3CC)C[C@@H]1C [Example 1451, (3S)-7-((3S,5R)-4-acryloyl-3,5-dimethylpiperazin-1-yl)-10-(2,4-difluorophenyl)-3-ethyl-9-(trifluoromethyl)-2,3-dihydro-5H-[1,4]thiazino[2,3,4-ij]quinazolin-5-one]	95%
